Measured values taken from US12157741B2, “Macrocyclic inhibitors of DYRK1A” (DANA-FARBER CANCER INSTITUTE, INC., priority 2018, dated 2024).

Key:
Assay type in all cases: binding
Details in all cases: compound 1 uM
various enzymes [1] = biological target: various enzymes (Homo sapiens, UniProt P04049)
Protocol: (§1) Ambit profiling was conducted in accordance with the manufacturer's instructions.

various enzymes [2] = biological target: various enzymes (Homo sapiens, UniProt Q00537)
Protocol: as §1

various enzymes [3] = biological target: T1, various enzymes (Homo sapiens, UniProt Q8IVH8)
T1 sequence (Q8IVH8 1-894): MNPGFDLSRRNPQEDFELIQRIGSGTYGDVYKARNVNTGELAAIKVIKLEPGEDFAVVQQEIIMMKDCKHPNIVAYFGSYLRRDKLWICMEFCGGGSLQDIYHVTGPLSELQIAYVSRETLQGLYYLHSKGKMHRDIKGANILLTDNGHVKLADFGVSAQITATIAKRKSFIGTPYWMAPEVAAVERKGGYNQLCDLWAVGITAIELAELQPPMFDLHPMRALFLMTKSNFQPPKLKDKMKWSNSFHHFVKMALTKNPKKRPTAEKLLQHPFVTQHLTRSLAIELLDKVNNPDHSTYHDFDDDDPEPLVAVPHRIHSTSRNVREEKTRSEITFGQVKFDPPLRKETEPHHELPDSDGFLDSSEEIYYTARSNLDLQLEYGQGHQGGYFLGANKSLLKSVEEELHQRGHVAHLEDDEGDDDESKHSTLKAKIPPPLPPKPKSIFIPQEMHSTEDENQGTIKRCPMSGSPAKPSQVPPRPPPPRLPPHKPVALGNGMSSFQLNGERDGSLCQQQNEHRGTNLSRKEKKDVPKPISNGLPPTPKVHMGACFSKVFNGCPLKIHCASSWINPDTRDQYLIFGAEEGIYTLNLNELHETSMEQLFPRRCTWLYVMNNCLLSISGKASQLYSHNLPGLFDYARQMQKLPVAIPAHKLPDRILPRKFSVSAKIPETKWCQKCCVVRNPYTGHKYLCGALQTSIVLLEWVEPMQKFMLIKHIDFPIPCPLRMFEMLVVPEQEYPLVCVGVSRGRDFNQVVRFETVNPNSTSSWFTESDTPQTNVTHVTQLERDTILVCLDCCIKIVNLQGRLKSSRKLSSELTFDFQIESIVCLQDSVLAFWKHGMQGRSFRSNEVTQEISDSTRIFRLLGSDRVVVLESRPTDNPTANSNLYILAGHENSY
Protocol: as §1

various enzymes [4] = biological target: various enzymes (Homo sapiens, UniProt Q9UBF8)
Chain of various enzymes (Homo sapiens, UniProt Q9UBF8) (Q9UBF8 whole entry): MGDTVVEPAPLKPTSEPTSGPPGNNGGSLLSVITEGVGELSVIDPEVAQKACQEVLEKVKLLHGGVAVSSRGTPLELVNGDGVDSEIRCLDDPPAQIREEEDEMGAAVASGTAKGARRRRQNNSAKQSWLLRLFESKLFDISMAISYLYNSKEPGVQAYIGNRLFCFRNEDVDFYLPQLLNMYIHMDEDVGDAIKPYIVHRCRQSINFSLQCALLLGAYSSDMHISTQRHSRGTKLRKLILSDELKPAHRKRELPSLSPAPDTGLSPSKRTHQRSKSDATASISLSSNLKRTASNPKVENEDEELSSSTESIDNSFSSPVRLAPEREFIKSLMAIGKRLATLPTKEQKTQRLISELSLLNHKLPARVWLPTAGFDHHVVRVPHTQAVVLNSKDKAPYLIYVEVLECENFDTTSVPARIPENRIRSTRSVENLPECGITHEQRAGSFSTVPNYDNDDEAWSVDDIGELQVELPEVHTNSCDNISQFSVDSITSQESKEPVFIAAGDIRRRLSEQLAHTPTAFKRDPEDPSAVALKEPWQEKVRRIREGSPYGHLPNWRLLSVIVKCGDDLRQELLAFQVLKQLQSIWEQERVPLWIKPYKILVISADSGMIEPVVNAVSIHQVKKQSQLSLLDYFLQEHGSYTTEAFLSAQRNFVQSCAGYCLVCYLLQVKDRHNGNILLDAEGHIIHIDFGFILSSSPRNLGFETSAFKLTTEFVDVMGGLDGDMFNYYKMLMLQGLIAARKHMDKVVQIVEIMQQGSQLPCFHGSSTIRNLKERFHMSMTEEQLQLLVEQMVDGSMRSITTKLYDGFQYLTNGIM
Protocol: as §1

various enzymes [5] = biological target: various enzymes (Homo sapiens, UniProt Q8IWQ3)
Chain of various enzymes (Homo sapiens, UniProt Q8IWQ3) (Q8IWQ3 whole entry): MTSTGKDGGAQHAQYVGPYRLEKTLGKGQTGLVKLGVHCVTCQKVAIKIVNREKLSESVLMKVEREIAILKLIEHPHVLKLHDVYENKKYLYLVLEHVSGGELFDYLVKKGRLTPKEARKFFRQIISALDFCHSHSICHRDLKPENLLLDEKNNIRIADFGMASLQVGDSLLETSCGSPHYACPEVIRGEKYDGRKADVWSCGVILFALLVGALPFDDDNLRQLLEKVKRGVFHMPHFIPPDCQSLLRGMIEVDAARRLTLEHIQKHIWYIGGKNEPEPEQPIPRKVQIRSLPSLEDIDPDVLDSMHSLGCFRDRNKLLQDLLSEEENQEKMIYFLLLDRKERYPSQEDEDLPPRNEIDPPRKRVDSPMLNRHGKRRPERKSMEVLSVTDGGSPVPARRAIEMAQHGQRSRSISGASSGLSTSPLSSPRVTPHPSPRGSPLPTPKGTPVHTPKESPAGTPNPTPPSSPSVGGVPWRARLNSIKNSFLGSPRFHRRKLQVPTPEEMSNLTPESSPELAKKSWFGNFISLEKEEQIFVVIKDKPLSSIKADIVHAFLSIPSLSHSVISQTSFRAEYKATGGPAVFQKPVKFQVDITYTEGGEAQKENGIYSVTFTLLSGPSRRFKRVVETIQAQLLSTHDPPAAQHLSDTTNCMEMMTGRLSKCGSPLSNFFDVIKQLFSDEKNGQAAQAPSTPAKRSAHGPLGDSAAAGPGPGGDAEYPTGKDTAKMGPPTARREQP
Protocol: as §1

various enzymes [6] = biological target: various enzymes (Homo sapiens, UniProt Q16539)
Chain of various enzymes (Homo sapiens, UniProt Q16539) (Q16539 whole entry): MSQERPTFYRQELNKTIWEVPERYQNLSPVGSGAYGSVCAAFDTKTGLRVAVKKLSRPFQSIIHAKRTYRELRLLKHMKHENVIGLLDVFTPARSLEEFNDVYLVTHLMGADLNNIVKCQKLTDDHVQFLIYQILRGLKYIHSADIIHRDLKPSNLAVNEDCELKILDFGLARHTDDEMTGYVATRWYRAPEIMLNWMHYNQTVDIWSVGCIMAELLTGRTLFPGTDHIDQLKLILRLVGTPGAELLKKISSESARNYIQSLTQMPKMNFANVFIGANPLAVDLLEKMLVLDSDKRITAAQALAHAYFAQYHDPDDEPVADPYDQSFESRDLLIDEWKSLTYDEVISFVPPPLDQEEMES
Protocol: as §1

various enzymes [7] = biological target: various enzymes (Homo sapiens, UniProt Q86YV6)
Chain of various enzymes (Homo sapiens, UniProt Q86YV6) (Q86YV6 whole entry): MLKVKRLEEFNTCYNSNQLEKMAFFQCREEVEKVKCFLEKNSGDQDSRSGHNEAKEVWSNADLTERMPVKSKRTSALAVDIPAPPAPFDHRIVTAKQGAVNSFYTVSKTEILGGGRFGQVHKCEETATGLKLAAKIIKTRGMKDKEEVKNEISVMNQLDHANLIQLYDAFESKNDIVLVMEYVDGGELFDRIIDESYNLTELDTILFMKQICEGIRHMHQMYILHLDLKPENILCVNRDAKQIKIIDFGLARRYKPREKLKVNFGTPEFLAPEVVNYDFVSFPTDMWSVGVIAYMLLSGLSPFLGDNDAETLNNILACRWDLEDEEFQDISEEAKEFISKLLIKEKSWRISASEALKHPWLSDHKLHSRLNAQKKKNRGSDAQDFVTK
Protocol: as §1

various enzymes [8] = biological target: various enzymes (Homo sapiens, UniProt Q8TD08)
Chain of various enzymes (Homo sapiens, UniProt Q8TD08) (Q8TD08 whole entry): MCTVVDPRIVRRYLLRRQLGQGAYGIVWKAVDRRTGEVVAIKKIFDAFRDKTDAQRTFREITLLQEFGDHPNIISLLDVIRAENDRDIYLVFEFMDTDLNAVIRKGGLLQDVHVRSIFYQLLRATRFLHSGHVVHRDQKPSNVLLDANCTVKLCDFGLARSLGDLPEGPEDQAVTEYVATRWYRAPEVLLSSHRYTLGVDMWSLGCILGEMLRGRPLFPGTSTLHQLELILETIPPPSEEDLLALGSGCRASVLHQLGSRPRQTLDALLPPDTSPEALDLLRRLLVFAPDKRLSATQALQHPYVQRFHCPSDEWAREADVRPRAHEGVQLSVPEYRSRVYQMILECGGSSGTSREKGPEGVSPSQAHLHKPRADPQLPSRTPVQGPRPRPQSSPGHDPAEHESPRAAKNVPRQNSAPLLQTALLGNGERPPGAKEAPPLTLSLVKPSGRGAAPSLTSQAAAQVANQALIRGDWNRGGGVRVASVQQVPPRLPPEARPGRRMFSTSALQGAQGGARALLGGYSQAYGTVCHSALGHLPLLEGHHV
Protocol: as §1

various enzymes [9] = biological target: T2, various enzymes (Homo sapiens, UniProt P29323)
T2 sequence (P29323 19-1055): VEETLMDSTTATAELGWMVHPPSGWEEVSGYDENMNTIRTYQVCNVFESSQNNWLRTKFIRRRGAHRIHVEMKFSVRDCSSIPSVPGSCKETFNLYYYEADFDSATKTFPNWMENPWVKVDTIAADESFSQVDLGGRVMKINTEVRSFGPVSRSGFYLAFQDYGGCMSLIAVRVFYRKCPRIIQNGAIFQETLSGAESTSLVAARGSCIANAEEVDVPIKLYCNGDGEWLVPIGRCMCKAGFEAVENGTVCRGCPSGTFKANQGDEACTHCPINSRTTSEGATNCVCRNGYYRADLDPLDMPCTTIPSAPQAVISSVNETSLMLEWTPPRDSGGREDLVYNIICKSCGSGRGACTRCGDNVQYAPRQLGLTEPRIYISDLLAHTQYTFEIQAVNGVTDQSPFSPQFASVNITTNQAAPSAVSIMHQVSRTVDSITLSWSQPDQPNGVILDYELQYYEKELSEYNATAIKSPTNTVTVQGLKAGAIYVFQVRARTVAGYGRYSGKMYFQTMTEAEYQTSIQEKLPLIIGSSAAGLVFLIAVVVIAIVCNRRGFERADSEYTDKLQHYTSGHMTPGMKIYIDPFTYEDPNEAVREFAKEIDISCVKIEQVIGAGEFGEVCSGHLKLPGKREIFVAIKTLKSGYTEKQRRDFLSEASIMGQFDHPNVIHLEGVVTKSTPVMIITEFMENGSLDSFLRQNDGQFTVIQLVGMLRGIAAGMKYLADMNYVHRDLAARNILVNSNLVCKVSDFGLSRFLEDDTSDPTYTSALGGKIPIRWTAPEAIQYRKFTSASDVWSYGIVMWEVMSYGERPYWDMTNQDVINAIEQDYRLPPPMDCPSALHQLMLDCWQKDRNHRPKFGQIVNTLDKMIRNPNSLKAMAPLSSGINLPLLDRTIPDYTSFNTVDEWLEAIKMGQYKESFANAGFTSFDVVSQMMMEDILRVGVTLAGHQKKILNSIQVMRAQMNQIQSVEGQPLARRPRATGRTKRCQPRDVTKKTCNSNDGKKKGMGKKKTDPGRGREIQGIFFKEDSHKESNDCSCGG
Protocol: as §1

Chain of various enzymes (Homo sapiens, UniProt P04049) (P04049 whole entry): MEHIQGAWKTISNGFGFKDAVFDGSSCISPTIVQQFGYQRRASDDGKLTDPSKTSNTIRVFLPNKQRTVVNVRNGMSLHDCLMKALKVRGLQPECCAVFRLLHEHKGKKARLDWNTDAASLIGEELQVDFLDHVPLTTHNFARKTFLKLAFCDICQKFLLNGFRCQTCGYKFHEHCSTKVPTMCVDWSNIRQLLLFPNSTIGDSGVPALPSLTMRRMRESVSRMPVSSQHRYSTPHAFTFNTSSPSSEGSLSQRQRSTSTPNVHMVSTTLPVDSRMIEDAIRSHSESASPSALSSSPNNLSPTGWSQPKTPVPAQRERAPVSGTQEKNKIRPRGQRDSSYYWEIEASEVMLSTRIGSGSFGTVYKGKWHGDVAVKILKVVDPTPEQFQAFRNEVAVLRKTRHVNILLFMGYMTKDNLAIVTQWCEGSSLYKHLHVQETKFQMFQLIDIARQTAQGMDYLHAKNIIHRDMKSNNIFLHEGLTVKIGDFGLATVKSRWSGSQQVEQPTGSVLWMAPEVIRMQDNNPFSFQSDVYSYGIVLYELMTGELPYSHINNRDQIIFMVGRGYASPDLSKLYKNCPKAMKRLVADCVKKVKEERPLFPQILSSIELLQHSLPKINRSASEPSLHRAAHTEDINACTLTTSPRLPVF
Chain of various enzymes (Homo sapiens, UniProt Q00537) (Q00537 whole entry): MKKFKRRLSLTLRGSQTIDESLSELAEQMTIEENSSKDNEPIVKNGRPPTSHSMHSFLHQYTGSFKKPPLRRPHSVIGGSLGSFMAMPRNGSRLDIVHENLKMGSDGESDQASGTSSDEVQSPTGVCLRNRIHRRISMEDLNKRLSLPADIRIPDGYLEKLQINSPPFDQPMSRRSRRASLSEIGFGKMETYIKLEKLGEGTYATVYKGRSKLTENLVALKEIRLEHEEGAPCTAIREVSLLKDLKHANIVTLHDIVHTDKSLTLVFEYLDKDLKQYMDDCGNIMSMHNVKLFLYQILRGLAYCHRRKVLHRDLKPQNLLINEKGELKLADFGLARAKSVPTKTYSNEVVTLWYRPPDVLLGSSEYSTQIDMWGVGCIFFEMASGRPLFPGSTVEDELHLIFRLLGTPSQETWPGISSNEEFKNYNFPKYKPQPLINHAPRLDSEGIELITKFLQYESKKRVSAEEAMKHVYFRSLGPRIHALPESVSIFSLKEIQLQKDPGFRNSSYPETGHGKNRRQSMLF

| SMILES | Ambit profiling: RAF1 (various enzymes [1]) | Ambit profiling: PCTK2 (various enzymes [2]) | Ambit profiling: MAP4K3 (various enzymes [3]) | Ambit profiling: PIK4CB (various enzymes [4]) | Ambit profiling: BRSK2 (various enzymes [5]) | Ambit profiling: p38-alpha (various enzymes [6]) | Ambit profiling: MYLK4 (various enzymes [7]) | Ambit profiling: ERK8 (various enzymes [8]) | Ambit profiling: EPHB2 (various enzymes [9]) |
| --- | --- | --- | --- | --- | --- | --- | --- | --- | --- |
| CC(C)N1Cc2nn(C)cc2-c2cnc3[nH]cc(c3c2)-c2cn(nc2C(F)(F)F)CCCC1=O [Compound 45, (Z)-5-isopropyl-31-methyl-13-(trifluoromethyl)-11H,21H,31H-5-aza-2(3,5)-pyrrolo[2,3-b]pyridina-1(4,1),3(4,3)-dipyrazolacyclononaphan-6-one] | 100 | 19 | 18 | 99 | 64 | 86 | 100 | 6.1 | 77 |
| COc1c2c(nn1C)CN(C(C)C)C(=O)CCCn1cc(c(C(F)(F)F)n1)-c1c[nH]c3ncc-2cc13 [Compound 50, (Z)-5-isopropyl-35-methoxy-31-methyl-13-(trifluoromethyl)-11H,21H,31H-5-aza-2(3,5)-pyrrolo[2,3-b]pyridina-1(4,1),3(4,3)-dipyrazolacyclononaphan-6-one] | 93 | 56 | 16 | 31 | 72 | 81 | 77 | 18 | 55 |
